The nature of data set [1]: Formation of PGE2 in A-23187-stimulated human polymorphonuclear leukocytes at 10 uM relative to control. The format is functional.
For data set [2], the species on record is Homo sapiens. The data set can be described thus: Inhibition of A23187-induced 5HETE formation in human polymorphonuclear leukocytes at 100 to 1000 uM. The class given is functional, cell-based.
The nature of data set [3]: Cytotoxicity against human polymorphonuclear leukocytes assessed as occurrence of cell suspension or lactate dehydrogenase release at 1 to 1000 uM.
Data set [4] is described as follows: Formation of 15HETE in A-23187-stimulated human polymorphonuclear leukocytes at 1000 uM relative to control. The format is functional.
The nature of data set [5]: Formation of PGE2 in A-23187-stimulated human polymorphonuclear leukocytes at 100 uM relative to control. The format is functional.
Data set [6] is filed under the species Homo sapiens. The data set can be described thus: Inhibition of A23187-induced LTB4 formation in human polymorphonuclear leukocytes at 100 to 1000 uM. The class given is functional, cell-based.
Data set [7] can be described thus: Inhibition of A23187-induced 5HETE formation in human polymorphonuclear leukocytes. The format is functional, cell-based. The following applies: for pIC50: Homo sapiens, read-out: IC50.
Data set [8] is described as follows: Formation of PGE2 in A-23187-stimulated human polymorphonuclear leukocytes at 1000 uM relative to control. The class given is functional.
The nature of data set [9]: Inhibition of A23187-induced LTB4 formation in human polymorphonuclear leukocytes. The class given is functional, cell-based. The following applies: for pIC50: Homo sapiens, read-out: IC50.
Data set [10] is described as follows: Inhibition of A23187-induced 12-hydroxy-5,8,10-heptadecatrienoic acid formation in human polymorphonuclear leukocytes. The format is functional, cell-based.
For data set [11], the species on record is Homo sapiens. As to the kind of experiment: Enhancement of PGE2 formation in A-23187-stimulated human polymorphonuclear leukocytes at 100 uM. The format is functional.
Data set [12] in a line: Formation of 15HETE in A-23187-stimulated human polymorphonuclear leukocytes at 100 uM relative to control. The format is functional.
The species entered for data set [13] is Homo sapiens. As to the kind of experiment: Inhibition of A23187-induced 12-hydroxy-5,8,10-heptadecatrienoic acid formation in human polymorphonuclear leukocytes at 1 to 100 uM. The class given is functional, cell-based.
The species named for data set [14] is Homo sapiens. The data set can be described thus: Inhibition of A23187-induced PGE2 formation in human polymorphonuclear leukocytes at 1 to 100 uM. The format is functional, cell-based.
Data set [15] is filed under the species Homo sapiens. The data set can be described thus: Enhancement of PGE2 formation in A-23187-stimulated human polymorphonuclear leukocytes at 10 to 100 uM. The class given is functional.
The species entered for data set [16] is Homo sapiens. The data set can be described thus: Inhibition of A23187-induced 12-hydroxy-5,8,10-heptadecatrienoic acid formation in human polymorphonuclear leukocytes at 1000 uM. The format is functional, cell-based.
Data set [17] is filed under the species Homo sapiens. The data set can be described thus: Enhancement of 15HETE formation in A-23187-stimulated human polymorphonuclear leukocytes at 10 to 100 uM. The class given is functional.
The nature of data set [18]: Formation of 15HETE in A-23187-stimulated human polymorphonuclear leukocytes at 10 uM relative to control. The class given is functional.
Data set [19] is filed under the species Homo sapiens. As to the kind of experiment: Enhancement of PGE2 formation in A-23187-stimulated human polymorphonuclear leukocytes at 100 to 1000 uM. The class given is functional.
The species named for data set [20] is Homo sapiens. The data set can be described thus: Inhibition of A23187-induced 5HETE formation in human polymorphonuclear leukocytes at 1 to 1000 uM. The class given is functional, cell-based.
Data set [21] in a line: Formation of 12-hydroxy-5,8,10-heptadecatrienoic acid in A-23187-stimulated human polymorphonuclear leukocytes at 1000 uM relative to control. The class given is functional.
Data set [22] can be described thus: Inhibition of A23187-induced 15HETE formation in human polymorphonuclear leukocytes. The format is functional, cell-based.
For data set [23], the species on record is Homo sapiens. As to the kind of experiment: Inhibition of A23187-induced 15HETE formation in human polymorphonuclear leukocytes at 100 to 1000 uM. The class given is functional, cell-based.
For data set [24], the species on record is Homo sapiens. As to the kind of experiment: Inhibition of A23187-induced 12-hydroxy-5,8,10-heptadecatrienoic acid formation in human polymorphonuclear leukocytes at 100 to 1000 uM. The class given is functional, cell-based.

Molecules are shown by their SMILES. pIC50: −log10 of the molar value. The source made the active and inactive calls. No cut-off for these calls is given here.

This passage reports Activity, inhibition and IC50 results from ChEMBL document CHEMBL1150175, “Studies on the activities of tannins and related compounds, X. Effects of caffeetannins and related compounds on arachidonate metabolism in human polymorphonuclear leukocytes” (J Nat Prod, 1987).

As to `O=C(/C=C/c1ccc(O)c(O)c1)O[C@H]1[C@H](O)C[C@](O)(C(=O)O)C[C@H]1OC(=O)/C=C/c1ccc(O)c(O)c1`, the Activity in data set [1] is recorded as 126%; in [3], “Non-toxic”; in data set [4], 56.9%; in data set [5], 155%; in data set [8] it was 79.5%. The inhibition result in the data set listed under Homo sapiens [2] and in the data set filed under Homo sapiens [6] was “Active” each time. For the same compound, the pIC50 was 3.22 in data set [7], 3.35 in data set [9] and 3.13 in data set [10]. Moreover, the outcome in the data set listed under Homo sapiens [11] was Active.

With `O=C(/C=C/c1ccc(O)c(O)c1)O[C@@H]1C[C@](O)(C(=O)O)C[C@@H](OC(=O)/C=C/c2ccc(O)c(O)c2)[C@H]1O`, the inhibition entry in the data set filed under Homo sapiens [2] and in the data set filed under Homo sapiens [6] was “Active” each time. Besides, the Activity result in data set [3] is on record as “Non-toxic”; in data set [4], 50.9%; in data set [5] it was 160.8%; in data set [8], 97.5%; in [12], 121.1%. The negative-log IC50 (pIC50) in data set [7] is 3.18; in data set [9], 4.07; in data set [10], 3.04. Further, in the data set filed under Homo sapiens [11], the result was Active.

With `O=C(/C=C/c1ccc(O)c(O)c1)O[C@@H]1[C@H](O)C[C@@](O)(C(=O)O)C[C@H]1OC(=O)/C=C/c1ccc(O)c(O)c1`, the inhibition entry in the data set listed under Homo sapiens [2] and in the data set filed under Homo sapiens [6] was “Active” each time. For the same compound, the Activity result in data set [3] is given as “Non-toxic”. For the same compound, the negative logarithm of the IC50 (pIC50) in data set [7] was 3.13; in data set [9], 4.03; in [10], 4.10. For the same compound, in the data set listed under Homo sapiens [11], the result was Active.

Take `COc1ccc2c(c1)c(CC(=O)O)c(C)n2C(=O)c1ccc(Cl)cc1`: the inhibition result in the data set filed under Homo sapiens [13] and in the data set listed under Homo sapiens [14] was “Active” throughout.

Consider `O=C(O)/C=C/c1ccc(O)c(O)c1` [CAFFEIC ACID], for which the outcome in the data set listed under Homo sapiens [15], in the data set filed under Homo sapiens [17] and in the data set filed under Homo sapiens [19] was Active. Also, the Activity entry in [3] was “Non-toxic”; in data set [4], 96.5%; in data set [18], 136.7%; in data set [12] it was 153.7%. The inhibition result in the data set filed under Homo sapiens [16] and in the data set filed under Homo sapiens [20] was “Active” in each case. In addition, the pIC50 is 3.56 in data set [7] and 3.39 in data set [9]. Further, the IC50 result in data set [9] is listed as “Dose-dependent effect”.

For the compound `O=C(O)CC(OC(=O)/C=C/c1ccc(O)c(O)c1)C(=O)O` (centres undefined) [CAFFEOYLMALIC ACID], the inhibition entry in the data set listed under Homo sapiens [2] and in the data set filed under Homo sapiens [6] was “Active” in each case. The Activity result is recorded as “Non-toxic” in [3], 114.8% in [4], 106.3% in [18] and 141.5% in [12]. Further, the negative-log IC50 (pIC50) in data set [7] was 3.04; in data set [9], 3.26; in data set [10] it was 3.10. In the data set listed under Homo sapiens [19], the result was Active.

For `O=C(/C=C/c1ccc(O)c(O)c1)OC(C(=O)O)C(O)C(=O)O` (centres undefined) [CAFFEOYLTARTARIC ACID], the inhibition result in the data set filed under Homo sapiens [2] and in the data set listed under Homo sapiens [6] was “Active” each time. The figures for the Activity entry in [3], in [4] and in data set [21] were “Non-toxic”, 55% and 57.9%, respectively. For the same compound, the pIC50 is 3.06 in data set [7] and 3.36 in data set [9]. Moreover, in the data set listed under Homo sapiens [19], the result was Active.

Turning to `O=C(/C=C/c1ccc(O)c(O)c1)O[C@@H]1C[C@](O)(C(=O)O)C[C@@H](O)[C@H]1O` [CHLOROGENIC ACID], the Activity result in data set [3] was “Non-toxic”.

On to `O=C(/C=C/c1ccc(O)c(O)c1)O[C@H](Cc1ccc(O)c(O)c1)C(=O)O` [ROSMARINIC ACID], for which the negative-log IC50 (pIC50) in data set [22] is 3.34; in [7], 3.67; in [9], 4.25; in [10], 3.34. The Activity in [1] is given as 143.4%; in [3], “Non-toxic”; in [8], 48%. Besides, the inhibition entry in the data set filed under Homo sapiens [23] and in the data set filed under Homo sapiens [24] was “Active” in each case. Moreover, the IC50 entry in data set [7] and in data set [9] was “Dose-dependent effect” in each case. Besides, the outcome in the data set filed under Homo sapiens [11] was Active.
